Where two headings read alike, the source gives them in different places.
System: Bezold-Jarisch reflux
Test: Inhibition of Bezold-Jarisch reflux (2-methyl-5-hydroxytryptamine-induced bradycardia in anesthetized rats)
Format: in vivo
Conditions: test compound iv, 5-minutes interval, then 2-methyl-5-hydroxytryptamine 32 μg/kg iv, urethane-anesthetized male Sprague-Dawley rats, bradycardic response
Procedure: Inhibition of Bezold-Jarisch reflux
Male Sprague-Dawley rats weighing 260-350 g were anesthetized intraperitoneally with 1.25 g/kg urethane.
Blood pressure and heart rate were monitored continuously from the left common carotid artery with a pressure transducer. A right femoral vein was cannulated for the intravenous injection (iv) of drugs. The trachea was also cannulated to ease the respiration.
Rats were given a rapid bolus injection of 2-methyl-5-hydroxytryptamine (32 μg/kg, iv) to establish the control bradycardic response. Once the heart rate returned to base line, the rats were given the test compound (iv), followed by 5-minutes interval and another bolus injection of 2-methyl-5-hydroxytryptamine (32 μg/kg, iv).

Row | Molecule | ED50 (Rattus norvegicus, 5 min, read-out: ED50) [µg/kg] | ED50 [µg/kg]
1 | Cc1[nH]cnc1C(C)N1CCc2c(C)c3ccccc3n2C1=O.Cl (centres unmarked) [Compound 2, 3,4-Dihydro-5-methyl-2-[1-(5-methyl-1H-imidazol-4-yl)ethyl]pyrimido[1,6-a]indol-1(2H)-one hydrochloride] | 1.5 | 
2 | 3,4-dihydro-5-methyl-2-[(5-methyl-1-trityl-1H-imidazol-4-yl)methyl]pyrimido[1,6-a]indol-1 (2H)-one [Example 1] |  | 0.56
